From US5442077A, “Benzo[B]Furancarboxamide derivatives, process for the preparation of same and use thereof for improving hypermotility” (Sanwa Kagaku Kenkyusho Co., Ltd., priority 1993, dated 1995)
Structures can show the parent of a compound that is named as a salt.

Tests used:
5-HT4 receptor = molecular target: T1, 5-HT4 receptor (Rattus norvegicus, UniProt Q62758); assay: Agonisting Action to 5-HT4 Receptor (relaxation of carbachol-treated oesophageal mucous membrane muscle sample); format: cell-based; conditions: negative logarithm of concentration causing 50% relaxation, rat esophagus
T1 construct: muscular sample of mucous membrane in esophgus exentrated from a rat; from tissue; host or cells: rat oesophagus, muscularis mucosae
T1 sequence (Q62758 whole entry): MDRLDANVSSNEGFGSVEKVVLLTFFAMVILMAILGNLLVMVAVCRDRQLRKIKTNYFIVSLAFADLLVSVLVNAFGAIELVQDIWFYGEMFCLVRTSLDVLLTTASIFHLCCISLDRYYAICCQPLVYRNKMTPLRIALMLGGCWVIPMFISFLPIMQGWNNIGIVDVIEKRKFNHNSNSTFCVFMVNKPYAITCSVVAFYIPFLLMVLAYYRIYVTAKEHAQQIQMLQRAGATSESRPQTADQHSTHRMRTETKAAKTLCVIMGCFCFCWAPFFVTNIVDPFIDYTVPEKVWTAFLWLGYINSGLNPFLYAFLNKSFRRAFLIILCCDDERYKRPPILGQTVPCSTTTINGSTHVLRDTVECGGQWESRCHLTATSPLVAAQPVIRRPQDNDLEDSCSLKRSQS

digestive tract = assay: Action on Hypermotility of Digestive Tract (acceleration of gastric emptying, phenol red); format: in vivo; conditions: Rattus norvegicus, oral, rats fasted for 24 hours, phenol red 30 min after administration
Procedure: The compounds obtained by Examples 1, 2 and 5 as well as exemplar known compounds (Metocloplamide and Cysapride) were selected as Test Compounds, and an action of the compounds for accelerating gastric emptying was checked in accordance with the method described by Yokochi et al [" (which can be translated as --Bulletin of Pharmacological Society of Japan--)", Vol. 92, page 297 (1988 )].
Namely, the test compound was orally administered in an amount of 0.3, 1.0, 3.0 or 10 mg/kg to rats fasted for 24 hours, and after 30 minutes from the administration, a coloring matter in a constant amount (phenol red, 100 μg) was also orally administered.
Rate of gastric emptying=100-(B/A)×100
A: Dosing amount of coloring matter, and
B: Remaining amount of coloring matter.
Rate of acceleration=(C-D)×100
C: Rate of gastric emptying in Test Group, and
D: Rate of gastric emptying in Control Group given no Test Compound.

dopamine D2 receptor = assay: Anti-Dopamine Action (general symptoms including catalepsy and blepharoptosis); format: in vivo, rat
Procedure: The compound was orally administered to rats in amount of 100, 300 or 1000 mg/kg to observe for 2 days general symptoms including catalepsy and blepharoptosis due to antagonistic action of the compound to dopamine D2 receptor.

[1] = oral, rats, observed for 2 days

EC50 (5-HT4 receptor) [nM] | SMILES | ED50 (digestive tract) [mg/kg] | Influence on central nervous system, 1000 mg/kg (dopamine D2 receptor; [1]) | further results
50.1 | CC1Cc2c(N)c(Cl)cc(C(=O)NCCC34CCCN3CCC4)c2O1 (single isomer, unassigned; (+)) [Example 4, (+)-4-Amino-N-[2-(1-azabicyclo[3.3.0]octan-5-yl)ethyl]-5-chloro-2-methyl-2,3-dihydrobenzo[b]furan-7-carboxamide . 1/2 fumarate] |  |  | 
20 | CC1Cc2c(N)c(Cl)cc(C(=O)NCCC34CCCN3CCC4)c2O1 (single isomer, unassigned; (-)) [Example 3, (-)-4-Amino-N-[2-(1-azabicyclo[3.3.0]octan-5-yl)ethyl]-5-chloro-2-methyl-2,3-dihydrobenzo[b]furan-7-carboxamide . 1/2 fumarate] |  |  | 
39.8 | CC1Cc2c(N)c(Cl)cc(C(=O)NCCC34CCCN3CCC4)c2O1 (centres unmarked) [2 (*), 4-Amino-N-[2-(1-azabicyclo[3.3.0]octan-5-yl)ethyl]-5-chloro-2-methyl-2,3-dihydrobenzo[b]furan-7-carboxamide] |  |  | 
316 | Nc1c(Cl)cc(C(=O)NCCC23CCCN2CCC3)c2c1CCO2 [Example 1, 4-Amino-N-[2-(1-azabicyclo[3.3.0]octan-5-yl)ethyl]-5-chloro-2,3-dihydrobenzo[b]furan-7-carboxamide] | 2.15 | - | 
 | CC1Cc2c(N)c(Cl)cc(C(=O)NCCC34CCCN3CCC4)c2O1 (centres unmarked) [Example 2, 4-Amino-N-[2-(1-azabicyclo[3.3.0]octan-5-yl)ethyl]-5-chloro-2-methyl-2,3-dihydrobenzo[b]furan-7-carboxamide] | 1.97 | - | Influence on central nervous system, 100 mg/kg (dopamine D2 receptor; [1]): -; Influence on central nervous system, 300 mg/kg (dopamine D2 receptor; oral, rats, 300 mg/kg, observed for 2 days): -
316 | CC1(C)Cc2c(N)c(Cl)cc(C(=O)NCCC34CCCN3CCC4)c2O1 [Example 5, 4-Amino-N-[2-(1-azabicyclo[3.3.0]octan-5-yl)ethyl]-5-chloro-2,2-dimethyl-2,3-dihydrobenzo[b]furan-7-carboxamide] | 1.5 | - | 
12.6 | CC1Oc2c(C(=O)NCCC34CCCN3CCC4)cc(Cl)c(N)c2C1C (centres unmarked) [Example 6, 4-Amino-N-[2-(1-azabicyclo[3.3.0]octan-5-yl)ethyl]-5-chloro-2,3-dimethyl-2,3-dihydrobenzo[b]furan-7-carboxamide] |  |  | 
20 | CCC1Cc2c(N)c(Cl)cc(C(=O)NCCC34CCCN3CCC4)c2O1 (centres unmarked) [Example 7, 4-Amino-N-[2-(1-azabicyclo[3.3.0]octan-5-yl)ethyl]-5-chloro-2-ethyl-2,3-dihydrobenzo[b]furan-7-carboxamide] |  |  | 
316 | CC(=O)Nc1c(Cl)cc(C(=O)NCCC23CCCN2CCC3)c2c1CC(C)O2 (centres unmarked) [Example 8, 4-Acetylamino-N-[2-(1-azabicyclo[3.3.0]octan-5-yl)ethyl]-5-chloro-2-methyl-2,3-dihydrobenzo[b]furan-7-carboxamide] |  |  | 
100 | CC1Cc2cc(Cl)cc(C(=O)NCCC34CCCN3CCC4)c2O1 (centres unmarked) [Example 9, N-[2-(1-Azabicyclo[3.3.0]octan-5-yl)ethyl]-5-chloro-2-methyl-2,3-dihydrobenzo[b]furan-7-carboxamide] |  |  | 
1000 | CC1Cc2c(N)ccc(C(=O)NCCC34CCCN3CCC4)c2O1 (centres unmarked) [Example 10, 4-Amino-N-[2-(1-azabicyclo[3.3.0]octan-5-yl)ethyl]-2-methyl-2,3-dihydrobenzo[b]furan-7-carboxamide] |  |  | 
 | CCN(CC)CCNC(=O)c1cc(Cl)c(N)cc1OC [Metoclopramide, 4-amino-5-chloro-N-[(2-diethylamino)ethyl]-2-methoxybenzamide, reference compound] | 16.3 |  | Influence on central nervous system, 100 mg/kg (dopamine D2 receptor; rat, in vivo, po): ++

SMILES | EC50 (5-HT4 receptor) [nM] | ED50 (digestive tract) [mg/kg] | Influence on central nervous system, 1000 mg/kg (dopamine D2 receptor; [1]) | further results
COc1cc(N)c(Cl)cc1C(=O)NC1CCN(CCCOc2ccc(F)cc2)CC1OC (centres unmarked) [Cisapride, reference compound] | 39.8 | 6.37 | ++ | 
